From ChEMBL document CHEMBL1139192, “Novel bis(indolyl)maleimide pyridinophanes that are potent, selective inhibitors of glycogen synthase kinase-3” (Bioorg Med Chem Lett, 2007)

Target: Glycogen synthase kinase-3 beta (Homo sapiens, UniProt P49841)
Test: Inhibition of human recombinant GSK3-beta

Glycogen synthase kinase-3 beta, sequence (P49841 whole entry): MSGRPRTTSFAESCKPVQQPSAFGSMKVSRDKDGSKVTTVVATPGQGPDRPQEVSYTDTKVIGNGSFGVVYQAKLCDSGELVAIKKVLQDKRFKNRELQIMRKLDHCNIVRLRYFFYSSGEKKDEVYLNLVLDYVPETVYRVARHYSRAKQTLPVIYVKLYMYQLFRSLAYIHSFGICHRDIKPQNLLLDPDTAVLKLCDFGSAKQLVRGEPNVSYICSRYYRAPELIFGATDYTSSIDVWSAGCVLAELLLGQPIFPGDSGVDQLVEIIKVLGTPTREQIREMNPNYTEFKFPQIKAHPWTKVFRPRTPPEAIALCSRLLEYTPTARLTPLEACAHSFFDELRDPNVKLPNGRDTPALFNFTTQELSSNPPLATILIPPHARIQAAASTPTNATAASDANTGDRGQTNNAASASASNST

IC50: 37 nM
Compound: CN(C)c1nc2ccc1CCCn1cc(c3ccccc31)C1=C(C(=O)NC1=O)c1cn(c3ccccc13)CCC2
